Laboratory results published in ChEMBL document CHEMBL1138211, “New benzopyran-based openers of the mitochondrial ATP-sensitive potassium channel with potent anti-ischemic properties” (J Med Chem, 2006).
Active and inactive are the calls of the source. No cut-off for these calls is given here.

Legend:
[1] = system: Rattus norvegicus; test: Activity in Langendorff perfused Wistar rat heart subjected to ischemia-reperfusion cycles at 40 mg/kg, ip after 120 mins; format: functional; conditions: route intraperitoneal
[2] = system: Aorta; test: Vasorelaxation activity on KCl-induced contractile tone in Wistar rat thoracic aortic ring; format: functional, tissue-based
[3] = system: Rattus norvegicus; test: LDH release in Langendorff perfused Wistar rat heart subjected to ischemia-reperfusion cycles at 40 mg/kg, ip after 120 mins; format: functional; conditions: route intraperitoneal
[4] = system: Aorta; test: Vasorelaxation activity on KCl-induced contractile tone in Wistar rat thoracic aortic ring at 100 uM; format: functional
[5] = system: Rattus norvegicus; test: Ischemia-injured area relative to total area in Langendorff perfused Wistar rat heart subjected to ischemia-reperfusion cycles at 40 mg/kg, ip; format: functional; conditions: route intraperitoneal
[6] = system: Rattus norvegicus; test: Activity in Langendorff perfused Wistar rat heart subjected to ischemia-reperfusion cycles at 40 mg/kg, ip after 30 mins; format: functional; conditions: route intraperitoneal
[7] = system: Rattus norvegicus; test: Activity in Langendorff perfused Wistar rat heart subjected to ischemia-reperfusion cycles at 40 mg/kg, ip after 120 mins in presence of 5-hydroxydecanoic acid; format: functional; conditions: route intraperitoneal
[8] = system: Rattus norvegicus; test: Activity in Langendorff perfused Wistar rat heart subjected to ischemia-reperfusion cycles at 40 mg/kg, ip after 30 mins in presence of 5-hydroxydecanoic acid; format: functional; conditions: route intraperitoneal
[9] = system: Rattus norvegicus; test: Ischemia-injured area relative to total area in Langendorff perfused Wistar rat heart subjected to ischemia-reperfusion cycles at 40 mg/kg, ip in presence of 5-hydroxydecanoic acid; format: functional; conditions: route intraperitoneal
[10] = system: Rattus norvegicus; test: LDH release in Langendorff perfused Wistar rat heart subjected to ischemia-reperfusion cycles at 40 mg/kg, ip after 120 mins in presence of 5-hydroxydecanoic acid; format: functional; conditions: route intraperitoneal
[11] = system: Rattus norvegicus; test: Activity in Langendorff perfused Wistar rat heart subjected to ischemia-reperfusion cycles at 1 mg/kg, ip after 30 mins in presence of 5-hydroxydecanoic acid; format: functional; conditions: route intraperitoneal
[12] = system: Rattus norvegicus; test: LDH release in Langendorff perfused Wistar rat heart subjected to ischemia-reperfusion cycles at 1 mg/kg, ip after 120 mins in presence of 5-hydroxydecanoic acid; format: functional; conditions: route intraperitoneal
[13] = system: Rattus norvegicus; test: Activity in Langendorff perfused Wistar rat heart subjected to ischemia-reperfusion cycles at 1 mg/kg, ip after 120 mins; format: functional; conditions: route intraperitoneal
[14] = system: Rattus norvegicus; test: LDH release in Langendorff perfused Wistar rat heart subjected to ischemia-reperfusion cycles at 1 mg/kg, ip after 120 mins; format: functional; conditions: route intraperitoneal
[15] = system: Rattus norvegicus; test: Activity in Langendorff perfused Wistar rat heart subjected to ischemia-reperfusion cycles at 1 mg/kg, ip after 30 mins; format: functional; conditions: route intraperitoneal
[16] = system: Rattus norvegicus; test: Activity in Langendorff perfused Wistar rat heart subjected to ischemia-reperfusion cycles at 1 mg/kg, ip after 120 mins in presence of 5-hydroxydecanoic acid; format: functional; conditions: route intraperitoneal
[17] = system: Rattus norvegicus; test: Ischemia-injured area relative to total area in Langendorff perfused Wistar rat heart subjected to ischemia-reperfusion cycles at 1 mg/kg, ip; format: functional; conditions: route intraperitoneal
[18] = system: Rattus norvegicus; test: Decrease in systolic blood pressure in Wistar rat at 1 mg/kg, ip after 60 mins; format: functional, organism-based; set-up: dose 1 mg/kg; conditions: Artery
[19] = system: Rattus norvegicus; test: Ischemia-injured area relative to total area in Langendorff perfused Wistar rat heart subjected to ischemia-reperfusion cycles at 1 mg/kg, ip in presence of 5-hydroxydecanoic acid; format: functional; conditions: route intraperitoneal

| SMILES | IC50 [2] | Activity [1] | LDH release [3] | Emax at 100 µM [4] | Activity [5] | Activity [6] | Activity [7] | Activity [8] | Activity [9] | Activity [10] | Activity [11] | Activity [12] | Activity [13] | Activity [14] | Activity [15] | Activity [16] | Activity [17] | Activity [18] | Activity [19] |
| --- | --- | --- | --- | --- | --- | --- | --- | --- | --- | --- | --- | --- | --- | --- | --- | --- | --- | --- | --- |
| CC(=O)Nc1ccc(CN2CC3(CC(C)(C)Oc4ccccc43)OCC2=O)cc1 (racemic) | 25.1 µM | 62% | 6 U/g | 57% | 20% | 79% | 27% | 16% | 49% | 13.5 U/g | – | – | – | – | – | – | – | – | – |
| CC1(C)CC2(CN(Cc3ccc(NS(C)(=O)=O)cc3)CCO2)c2cc(Br)ccc2O1 (racemic) | – | 77% | 6.9 U/g | 98% | 14% | 89% | 33% | 17% | 40% | 13.4 U/g | – | – | – | – | – | – | – | – | – |
| CC1(C)Oc2ccc(C#N)cc2C(N2CCCC2=O)C1O (racemic) [CROMAKALIM] | 0.0977 µM | – | – | 98% | – | – | – | – | – | – | 11% | 8.6% | 84% | 5.5% | 99% | 18% | 25% | Active | 38% |
| CC1=Nc2ccc(Cl)cc2S(=O)(=O)N1 [DIAZOXIDE] | 19.1 µM | 47% | 5.7 U/g | 97% | 22% | 80% | 6% | 13% | 52% | 14.5% | – | – | – | – | – | – | – | – | – |

Continued, in another order:

| IC50 [2] | SMILES | Activity [1] | LDH release [3] | Emax at 100 µM [4] | Activity [5] | Activity [6] | Activity [7] | Activity [8] | Activity [9] | Activity [10] | Activity [11] | Activity [12] | Activity [13] | Activity [14] | Activity [15] | Activity [16] | Activity [17] | Activity [18] | Activity [19] |
| --- | --- | --- | --- | --- | --- | --- | --- | --- | --- | --- | --- | --- | --- | --- | --- | --- | --- | --- | --- |
| 13.2 µM | CC(=O)Nc1ccc(CN2CCOC3(C2)CC(C)(C)Oc2ccccc23)cc1 (racemic) | 17% | 16 U/g | 77% | 50% | 12% | – | – | – | – | – | – | – | – | – | – | – | – | – |
| 15.1 µM | CC(=O)Nc1ccc(CN2CC3(CC(C)(C)Oc4ccc(Br)cc43)OCC2=O)cc1 (racemic) | 3% | 12.4 U/g | 70% | 58% | 2% | – | – | – | – | – | – | – | – | – | – | – | – | – |
| 7.24 µM | CC1(C)CC2(CN(Cc3ccc(NS(C)(=O)=O)cc3)C(=O)CO2)c2cc(Br)ccc2O1 (racemic) | 57% | 3 U/g | 87% | 13% | 75% | 39% | 52% | 47% | 11.7 U/g | – | – | – | – | – | – | – | – | – |
| 2.4 µM | CC(=O)Nc1ccc(CN2CCOC3(C2)CC(C)(C)Oc2ccc(Br)cc23)cc1 (racemic) | 26% | 11.3 U/g | 99% | 61% | 15% | – | – | – | – | – | – | – | – | – | – | – | – | – |
